According to ChEMBL document CHEMBL4507264, “Data for DCP probe BAY-7598” (2021):

Tests used:
[1] = molecular target: Serine/threonine-protein kinase MAK (Homo sapiens) (UniProt P20794); details: Compound concentration 1000.0 nM
[2] = molecular target: Death-associated protein kinase 2 (Homo sapiens) (UniProt Q9UIK4); details: Compound concentration 1000.0 nM
[3] = molecular target: Mitogen-activated protein kinase kinase kinase kinase 3 (Homo sapiens) (UniProt Q8IVH8); details: Compound concentration 1000.0 nM
[4] = molecular target: Receptor-interacting serine/threonine-protein kinase 2 (Homo sapiens) (UniProt O43353); details: Compound concentration 1000.0 nM
[5] = molecular target: Bone morphogenetic protein receptor type-1B (Homo sapiens) (UniProt O00238); details: Compound concentration 1000.0 nM
[6] = molecular target: Beta-adrenergic receptor kinase 1 (Homo sapiens) (UniProt P25098); details: Compound concentration 1000.0 nM
Sequence of Beta-adrenergic receptor kinase 1 (Homo sapiens) (P25098 whole entry): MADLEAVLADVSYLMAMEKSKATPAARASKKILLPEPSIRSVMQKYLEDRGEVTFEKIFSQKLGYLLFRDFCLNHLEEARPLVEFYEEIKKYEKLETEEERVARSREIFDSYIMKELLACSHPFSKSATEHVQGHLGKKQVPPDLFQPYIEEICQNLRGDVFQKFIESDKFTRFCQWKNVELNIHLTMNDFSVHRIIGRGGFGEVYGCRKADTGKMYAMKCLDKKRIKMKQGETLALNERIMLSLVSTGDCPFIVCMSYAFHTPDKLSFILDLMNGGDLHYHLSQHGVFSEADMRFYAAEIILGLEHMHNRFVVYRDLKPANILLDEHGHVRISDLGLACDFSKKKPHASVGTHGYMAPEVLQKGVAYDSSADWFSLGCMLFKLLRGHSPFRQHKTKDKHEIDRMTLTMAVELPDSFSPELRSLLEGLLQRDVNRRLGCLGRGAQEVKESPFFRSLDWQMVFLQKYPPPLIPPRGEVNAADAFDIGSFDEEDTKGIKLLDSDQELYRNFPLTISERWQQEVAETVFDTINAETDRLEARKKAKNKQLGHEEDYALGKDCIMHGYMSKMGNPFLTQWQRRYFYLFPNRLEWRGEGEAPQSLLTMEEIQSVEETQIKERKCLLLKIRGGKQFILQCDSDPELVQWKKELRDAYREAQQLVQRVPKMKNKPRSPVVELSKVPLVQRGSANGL

[7] = molecular target: Dual specificity mitogen-activated protein kinase kinase 3 (Homo sapiens) (UniProt P46734); details: Compound concentration 1000.0 nM
[8] = molecular target: GABA-A receptor; anion channel (Rattus norvegicus) (UniProt O09028+P15431+P18506+P18508+P19969+P20236+P23574+P23576+P28471+P28473+P30191+P62813+P63079+P63138+Q91ZM7+Q9ES14); details: Compound concentration 10.0 uM
[9] = molecular target: Vascular endothelial growth factor receptor 3 (Homo sapiens) (UniProt P35916); details: Compound concentration 1000.0 nM
[10] = molecular target: Serine/threonine-protein kinase DCLK2 (Homo sapiens) (UniProt Q8N568); details: Compound concentration 1000.0 nM
[11] = molecular target: Ephrin type-A receptor 2 (Homo sapiens) (UniProt P29317); details: Compound concentration 1000.0 nM
[12] = molecular target: MAP/microtubule affinity-regulating kinase 4 (Homo sapiens) (UniProt Q96L34); details: Compound concentration 1000.0 nM
[13] = molecular target: Muscle, skeletal receptor tyrosine-protein kinase (Homo sapiens) (UniProt O15146); details: Compound concentration 1000.0 nM
[14] = molecular target: Ephrin type-B receptor 1 (Homo sapiens) (UniProt P54762); details: Compound concentration 1000.0 nM
[15] = molecular target: Serine/threonine-protein kinase MRCK alpha (Homo sapiens) (UniProt Q5VT25); details: Compound concentration 1000.0 nM
[16] = molecular target: Tyrosine-protein kinase Fyn (Homo sapiens) (UniProt P06241); details: Compound concentration 1000.0 nM
[17] = molecular target: Mitogen-activated protein kinase kinase kinase 19 (Homo sapiens) (UniProt Q56UN5); details: Compound concentration 1000.0 nM
[18] = molecular target: LIM domain kinase 1 (Homo sapiens) (UniProt P53667); details: Compound concentration 1000.0 nM
Sequence of LIM domain kinase 1 (Homo sapiens) (P53667 whole entry, looked up, the tested form may be a part): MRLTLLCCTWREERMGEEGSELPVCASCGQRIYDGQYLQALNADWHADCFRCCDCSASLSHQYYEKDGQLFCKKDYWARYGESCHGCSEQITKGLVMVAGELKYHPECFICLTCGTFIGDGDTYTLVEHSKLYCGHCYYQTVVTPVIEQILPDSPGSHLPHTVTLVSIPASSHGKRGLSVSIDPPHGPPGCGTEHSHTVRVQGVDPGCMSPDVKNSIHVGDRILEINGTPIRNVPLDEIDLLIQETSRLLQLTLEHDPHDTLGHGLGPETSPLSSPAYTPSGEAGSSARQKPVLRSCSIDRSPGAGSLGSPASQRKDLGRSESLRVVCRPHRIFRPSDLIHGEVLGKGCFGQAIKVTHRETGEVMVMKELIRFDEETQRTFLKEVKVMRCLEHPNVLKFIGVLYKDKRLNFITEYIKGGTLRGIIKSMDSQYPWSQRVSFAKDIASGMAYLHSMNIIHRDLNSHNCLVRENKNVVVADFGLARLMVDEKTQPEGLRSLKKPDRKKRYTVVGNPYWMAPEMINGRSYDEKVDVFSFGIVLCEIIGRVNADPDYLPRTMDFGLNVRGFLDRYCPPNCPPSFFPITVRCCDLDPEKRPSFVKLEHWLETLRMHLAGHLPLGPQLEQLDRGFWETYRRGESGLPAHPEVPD

[19] = system: ALK tyrosine kinase receptor (Homo sapiens), Q9UM73 [L1196M]; details: Compound concentration 1000.0 nM
[20] = system: Tyrosine-protein kinase ABL1 (Homo sapiens), P00519 [F317I]; details: Compound concentration 1000.0 nM
[21] = molecular target: Serine/threonine-protein kinase pim-3 (Homo sapiens) (UniProt Q86V86); details: Compound concentration 1000.0 nM
[22] = molecular target: 5-hydroxytryptamine receptor 6 (Homo sapiens) (UniProt P50406); details: Compound concentration 10.0 uM
[23] = molecular target: Serine/threonine-protein kinase 4 (Homo sapiens) (UniProt Q13043); details: Compound concentration 1000.0 nM
[24] = molecular target: Uncharacterized serine/threonine-protein kinase SBK3 (Homo sapiens) (UniProt P0C264); details: Compound concentration 1000.0 nM
[25] = system: Epidermal growth factor receptor (Homo sapiens), P00533 [UNDEFINED MUTATION]; details: Compound concentration 1000.0 nM
[26] = molecular target: Mitogen-activated protein kinase kinase kinase 9 (Homo sapiens) (UniProt P80192); details: Compound concentration 1000.0 nM
[27] = molecular target: Serine/threonine-protein kinase BRSK1 (Homo sapiens) (UniProt Q8TDC3); details: Compound concentration 1000.0 nM
[28] = molecular target: NUAK family SNF1-like kinase 2 (Homo sapiens) (UniProt Q9H093); details: Compound concentration 1000.0 nM
[29] = molecular target: Inhibitor of nuclear factor kappa-B kinase subunit beta (Homo sapiens) (UniProt O14920); details: Compound concentration 1000.0 nM
[30] = molecular target: Calcium/calmodulin-dependent protein kinase type 1B (Homo sapiens) (UniProt Q6P2M8); details: Compound concentration 1000.0 nM
[31] = molecular target: Proto-oncogene tyrosine-protein kinase receptor Ret (Homo sapiens) (UniProt P07949); details: Compound concentration 1000.0 nM
[32] = molecular target: Beta-2 adrenergic receptor (Homo sapiens) (UniProt P07550); details: Compound concentration 10.0 uM
[33] = molecular target: Serine/threonine-protein kinase 35 (Homo sapiens) (UniProt Q8TDR2); details: Compound concentration 1000.0 nM
Sequence of Serine/threonine-protein kinase 35 (Homo sapiens) (Q8TDR2 whole entry): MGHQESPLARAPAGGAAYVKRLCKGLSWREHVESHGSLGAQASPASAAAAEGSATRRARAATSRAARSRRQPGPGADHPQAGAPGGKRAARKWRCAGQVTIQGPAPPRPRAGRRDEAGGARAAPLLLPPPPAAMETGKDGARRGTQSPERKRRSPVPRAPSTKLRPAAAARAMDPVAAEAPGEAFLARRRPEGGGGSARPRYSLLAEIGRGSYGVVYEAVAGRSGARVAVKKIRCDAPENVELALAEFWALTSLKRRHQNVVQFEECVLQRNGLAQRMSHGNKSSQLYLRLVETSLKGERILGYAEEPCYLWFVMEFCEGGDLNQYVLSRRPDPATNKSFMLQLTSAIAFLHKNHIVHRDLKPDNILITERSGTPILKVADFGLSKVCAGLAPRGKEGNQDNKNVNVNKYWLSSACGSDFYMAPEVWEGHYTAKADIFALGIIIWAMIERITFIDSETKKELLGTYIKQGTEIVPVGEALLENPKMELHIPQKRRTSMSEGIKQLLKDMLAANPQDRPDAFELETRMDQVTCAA

[34] = molecular target: Dual specificity testis-specific protein kinase 1 (Homo sapiens) (UniProt Q15569); details: Compound concentration 1000.0 nM
[35] = molecular target: Aurora kinase A (Homo sapiens) (UniProt O14965); details: Compound concentration 1000.0 nM
[36] = molecular target: Epidermal growth factor receptor (Homo sapiens) (UniProt P00533); details: Compound concentration 1000.0 nM
[37] = system: Mast/stem cell growth factor receptor Kit (Homo sapiens), P10721 [D816V]; details: Compound concentration 1000.0 nM
Sequence of Mast/stem cell growth factor receptor Kit (Homo sapiens), P10721 [D816V] (P10721 whole entry D816V): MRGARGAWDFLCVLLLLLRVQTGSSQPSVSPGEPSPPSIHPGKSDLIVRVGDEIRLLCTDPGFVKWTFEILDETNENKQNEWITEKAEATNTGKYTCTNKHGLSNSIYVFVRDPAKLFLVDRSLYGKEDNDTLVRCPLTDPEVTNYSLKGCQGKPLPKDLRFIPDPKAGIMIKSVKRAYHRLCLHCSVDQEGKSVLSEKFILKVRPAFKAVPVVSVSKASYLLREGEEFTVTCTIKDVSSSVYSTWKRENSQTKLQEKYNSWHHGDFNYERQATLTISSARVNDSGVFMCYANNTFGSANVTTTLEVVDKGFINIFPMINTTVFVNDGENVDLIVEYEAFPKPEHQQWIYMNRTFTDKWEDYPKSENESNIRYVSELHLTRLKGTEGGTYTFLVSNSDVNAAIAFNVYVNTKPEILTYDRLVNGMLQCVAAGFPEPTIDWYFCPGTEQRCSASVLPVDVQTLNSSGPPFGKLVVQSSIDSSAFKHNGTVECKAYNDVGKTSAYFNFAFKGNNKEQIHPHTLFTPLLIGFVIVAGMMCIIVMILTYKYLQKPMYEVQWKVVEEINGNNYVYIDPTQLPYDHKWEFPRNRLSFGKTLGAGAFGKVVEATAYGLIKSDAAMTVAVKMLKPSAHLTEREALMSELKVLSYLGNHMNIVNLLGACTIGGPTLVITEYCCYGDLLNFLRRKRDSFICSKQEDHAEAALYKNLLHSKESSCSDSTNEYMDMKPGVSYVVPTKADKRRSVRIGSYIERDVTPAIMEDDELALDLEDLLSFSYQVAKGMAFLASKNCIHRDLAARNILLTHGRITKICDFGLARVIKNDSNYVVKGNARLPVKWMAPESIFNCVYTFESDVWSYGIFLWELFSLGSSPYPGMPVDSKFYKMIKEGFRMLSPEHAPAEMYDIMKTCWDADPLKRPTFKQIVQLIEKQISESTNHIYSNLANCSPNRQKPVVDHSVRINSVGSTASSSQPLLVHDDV

[38] = molecular target: Serine/threonine-protein kinase 25 (Homo sapiens) (UniProt O00506); details: Compound concentration 1000.0 nM
[39] = molecular target: Microtubule-associated serine/threonine-protein kinase 1 (Homo sapiens) (UniProt Q9Y2H9); details: Compound concentration 1000.0 nM
Sequence of Microtubule-associated serine/threonine-protein kinase 1 (Homo sapiens) (Q9Y2H9 whole entry, looked up): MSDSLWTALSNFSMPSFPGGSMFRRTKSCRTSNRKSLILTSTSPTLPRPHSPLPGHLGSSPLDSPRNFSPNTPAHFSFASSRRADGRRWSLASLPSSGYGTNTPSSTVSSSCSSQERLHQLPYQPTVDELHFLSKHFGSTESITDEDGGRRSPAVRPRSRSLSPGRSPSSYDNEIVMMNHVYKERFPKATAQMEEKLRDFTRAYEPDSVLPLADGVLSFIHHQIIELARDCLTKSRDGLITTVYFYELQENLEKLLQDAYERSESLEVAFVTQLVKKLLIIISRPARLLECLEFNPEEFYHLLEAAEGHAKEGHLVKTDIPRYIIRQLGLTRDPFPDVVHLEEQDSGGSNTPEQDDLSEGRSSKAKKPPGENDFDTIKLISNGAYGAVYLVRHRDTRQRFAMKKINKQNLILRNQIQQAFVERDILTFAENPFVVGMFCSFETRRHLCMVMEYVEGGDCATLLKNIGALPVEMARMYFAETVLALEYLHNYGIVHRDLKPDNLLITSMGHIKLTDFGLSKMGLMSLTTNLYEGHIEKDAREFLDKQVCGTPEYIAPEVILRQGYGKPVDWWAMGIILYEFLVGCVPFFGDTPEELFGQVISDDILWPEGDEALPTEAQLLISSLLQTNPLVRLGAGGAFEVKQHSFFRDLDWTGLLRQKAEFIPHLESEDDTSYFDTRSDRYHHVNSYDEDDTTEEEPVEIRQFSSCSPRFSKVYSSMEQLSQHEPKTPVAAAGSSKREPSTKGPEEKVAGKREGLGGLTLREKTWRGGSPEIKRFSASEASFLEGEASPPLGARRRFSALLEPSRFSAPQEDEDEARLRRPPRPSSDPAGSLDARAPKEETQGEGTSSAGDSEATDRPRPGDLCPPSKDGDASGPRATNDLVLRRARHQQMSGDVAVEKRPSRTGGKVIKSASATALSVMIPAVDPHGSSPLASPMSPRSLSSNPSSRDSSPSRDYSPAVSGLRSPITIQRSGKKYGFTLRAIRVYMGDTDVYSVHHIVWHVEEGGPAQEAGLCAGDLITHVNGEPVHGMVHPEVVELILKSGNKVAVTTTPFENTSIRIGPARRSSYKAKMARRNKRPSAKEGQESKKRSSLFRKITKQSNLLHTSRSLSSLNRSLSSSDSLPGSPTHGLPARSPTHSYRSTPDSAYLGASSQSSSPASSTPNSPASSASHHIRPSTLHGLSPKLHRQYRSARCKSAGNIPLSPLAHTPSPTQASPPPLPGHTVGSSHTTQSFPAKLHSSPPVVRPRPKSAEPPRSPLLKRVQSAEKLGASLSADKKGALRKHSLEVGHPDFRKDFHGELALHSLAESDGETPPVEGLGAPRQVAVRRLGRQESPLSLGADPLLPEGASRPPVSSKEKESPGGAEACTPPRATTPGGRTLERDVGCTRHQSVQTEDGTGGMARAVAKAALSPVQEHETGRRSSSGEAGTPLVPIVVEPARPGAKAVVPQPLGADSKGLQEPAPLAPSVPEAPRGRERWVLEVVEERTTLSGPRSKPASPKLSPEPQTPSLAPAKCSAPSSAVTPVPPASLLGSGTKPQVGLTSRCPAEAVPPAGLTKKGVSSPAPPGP

[40] = molecular target: Serine/threonine-protein kinase WNK1 (Homo sapiens) (UniProt Q9H4A3); details: Compound concentration 1000.0 nM
[41] = system: Phosphatidylinositol 4,5-bisphosphate 3-kinase catalytic subunit alpha isoform (Homo sapiens), P42336 [Q546K]; details: Compound concentration 1000.0 nM
[42] = molecular target: Serine/threonine-protein kinase 38 (Homo sapiens) (UniProt Q15208); details: Compound concentration 1000.0 nM
[43] = molecular target: Serine/threonine-protein kinase SBK1 (Homo sapiens) (UniProt Q52WX2); details: Compound concentration 1000.0 nM

Sequence of Serine/threonine-protein kinase MAK (Homo sapiens) (P20794 whole entry): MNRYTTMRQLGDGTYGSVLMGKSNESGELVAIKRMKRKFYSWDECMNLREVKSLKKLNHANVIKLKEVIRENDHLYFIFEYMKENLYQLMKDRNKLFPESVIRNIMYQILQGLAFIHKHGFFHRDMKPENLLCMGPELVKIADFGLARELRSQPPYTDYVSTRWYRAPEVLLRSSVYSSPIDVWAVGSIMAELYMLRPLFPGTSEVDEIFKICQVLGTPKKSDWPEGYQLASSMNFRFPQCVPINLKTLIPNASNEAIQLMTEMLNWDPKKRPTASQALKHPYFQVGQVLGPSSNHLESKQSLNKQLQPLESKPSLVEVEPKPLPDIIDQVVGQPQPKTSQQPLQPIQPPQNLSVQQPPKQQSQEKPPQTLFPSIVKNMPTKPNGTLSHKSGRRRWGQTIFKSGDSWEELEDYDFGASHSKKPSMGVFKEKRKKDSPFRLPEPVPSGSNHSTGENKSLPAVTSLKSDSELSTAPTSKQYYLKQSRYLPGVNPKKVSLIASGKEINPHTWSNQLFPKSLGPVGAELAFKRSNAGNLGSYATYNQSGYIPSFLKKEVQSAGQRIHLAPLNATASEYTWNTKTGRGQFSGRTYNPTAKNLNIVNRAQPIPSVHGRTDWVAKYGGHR

O=C(O)[C@@H]1[C@@H](Cn2nnc3ccccc3c2=O)CC[C@H]1C(=O)c1ccc(OCCC2CCOCC2)cc1 [BAY-694]
residual activity [1]: 78% | residual activity [2]: 100% | residual activity [3]: 100% | residual activity [4]: 97% | residual activity [5]: 78% | residual activity [6]: 78% | residual activity [7]: 92% | inhibition [8]: 10.2% | residual activity [9]: 100% | residual activity [10]: 87% | residual activity [11]: 100% | residual activity [12]: 100% | residual activity [13]: 100% | residual activity [14]: 100% | residual activity [15]: 91% | residual activity [16]: 76% | residual activity [17]: 84% | residual activity [18]: 100% | residual activity [19]: 93% | residual activity [20]: 82% | residual activity [21]: 84% | inhibition [22]: 26.9% | residual activity [23]: 98% | residual activity [24]: 43% | residual activity [25]: 58% | residual activity [26]: 100% | residual activity [27]: 100% | residual activity [28]: 100% | residual activity [29]: 100% | residual activity [30]: 67% | residual activity [31]: 100% | inhibition [32]: 24.4% | residual activity [33]: 100% | residual activity [34]: 94% | residual activity [35]: 100% | residual activity [36]: 90% | residual activity [37]: 98% | residual activity [38]: 87% | residual activity [39]: 100% | residual activity [40]: 100% | residual activity [41]: 86% | residual activity [42]: 95% | residual activity [43]: 100%

O=C(O)[C@H]1[C@H](Cn2nnc3ccccc3c2=O)CC[C@@H]1C(=O)c1ccc(OCCC2CCOCC2)cc1 [BAY-7598]
residual activity [1]: 95% | residual activity [2]: 100% | residual activity [3]: 100% | residual activity [4]: 100% | residual activity [5]: 95% | residual activity [6]: 61% | residual activity [7]: 90% | inhibition [8]: 7.4% | residual activity [9]: 81% | residual activity [10]: 79% | residual activity [11]: 93% | residual activity [12]: 96% | residual activity [13]: 95% | residual activity [14]: 100% | residual activity [15]: 100% | residual activity [16]: 100% | residual activity [17]: 78% | residual activity [18]: 100% | residual activity [19]: 81% | residual activity [20]: 86% | residual activity [21]: 86% | inhibition [22]: 16.6% | residual activity [23]: 98% | residual activity [24]: 100% | residual activity [25]: 65% | residual activity [26]: 81% | residual activity [27]: 78% | residual activity [28]: 100% | residual activity [29]: 100% | residual activity [30]: 46% | residual activity [31]: 82% | inhibition [32]: 8.44% | residual activity [33]: 100% | residual activity [34]: 100% | residual activity [35]: 97% | residual activity [36]: 88% | residual activity [37]: 97% | residual activity [38]: 90% | residual activity [39]: 98% | residual activity [40]: 100% | residual activity [41]: 97% | residual activity [42]: 88% | residual activity [43]: 68%
